Measurements published in BindingDB's records for doi:10.1021/jm00040a008 (Harvard Medical School, 1994).

Assay: Tested in vitro for inhibitory concentration against CCRF-CEM human Leukemic lymphoblast by using DHFR as primary target

SMILES: CCC(Cc1cnc2nc(N)nc(N)c2n1)c1ccc(C(=O)N[C@@H](CCC(=O)O)C(=O)O)cc1 (stereo partly specified) [Edatrexate]
- IC50: 2.6 nM
